Measurements taken from US4198504A, “[3-(Pyridinium)-7-(naphthyiridinyl carbonylamino)acetamido]cephalosporanic acid derivatives” (Bristol-Myers Company, priority 1978, dated 1980).

How the values were obtained:
S. aureus = test: In vitro MIC, serial two-fold agar dilution, primary evaluation Gp (S. aureus, 6 strains); format: cell-based; conditions: CBPC = 100%; geometric mean of MICs; Mueller-Hinton agar
Description: (§1) Minimun inhibitory concentrations (MIC) were determined by the serial two-fold agar dilution method using Steers' apparatus on Mueller-Hinton agar plate against 31 test organisms for the primary screening and also against 64 strains of Pseudomonas aeruginosa for the secondary evaluation. The results are shown in Table 1 in terms of relative activity with respect to the standard compound CBPC (carbenicillin) which was set at 100%. In each group the calculation was based on the geometric mean of the observed MICs.
*GP = S. aureus (6 strains);

[1] = tested on: E. coli (9), Klebsiella sp. (2), Pr. mirabilis (1), Sal. enteritidis (1); test: In vitro MIC, serial two-fold agar dilution, primary evaluation Gn-I (E. coli, Klebsiella sp., Pr. mirabilis, Sal. enteritidis); format: cell-based; conditions: CBPC = 100%; geometric mean of MICs; Mueller-Hinton agar
Description: as §1
GnI = E. coli (9), Klebsiella sp. (2), Pr. mirabilis (1), Sal.

[2] = tested on: Ent. cloacae (3), Pr. vulgaris (1), Pr. morganii (1), S. marcescen (1); test: In vitro MIC, serial two-fold agar dilution, primary evaluation Gn-II (Ent. cloacae, Pr. vulgaris, Pr. morganii, S. marcescens); format: cell-based; conditions: CBPC = 100%; geometric mean of MICs; Mueller-Hinton agar
Description: as §1
GnII = Ent. cloacae (3), Pr. vulgaris (1), Pr. morganii (1), S. marcescen

Ps. aeruginosa = test: In vitro MIC, serial two-fold agar dilution, primary evaluation Ps (6 strains); format: cell-based; conditions: CBPC = 100%; geometric mean of MICs; Mueller-Hinton agar
Description: as §1
Ps. = Ps. aeruginosa (6).

Pseudomonas aeruginosa = test: In vitro MIC, serial two-fold agar dilution, secondary evaluation against Pseudomonas aeruginosa strains; format: cell-based; conditions: CBPC = 100%; geometric mean of MICs; 61-64 strains
Description: as §1

[3] = tested on: Pseudomonas aeruginosa A9843; test: In vivo efficacy, experimental infection in mice, intramuscular treatment, Pseudomonas aeruginosa A9843; design: species or system Pseudomonas aeruginosa (infected mice); conditions: A9843, im, 120 h, I.M., 100×LD50 challenge i.p., 5 days, read-out: PD50 Pseudomonas aeruginosa A9843
Description: (§2) The in vivo efficacy was evaluated by intramuscular treatment against three kinds of experimental infection in mice.
(§3) The in vivo tests were carried out using the following three pathogenic organisms:
Pseudomonas aeruginosa A9843
(§4) Mice were challenged intraperitoneally with approximately a 100×LD50 dose of the pathogens in a 5% mucin suspension. The mice were treated with test compound by I.M. route immediately after the bacterial challenge.

[4] = Antibiotic blood levels in mice following intramuscular administration (paper disc-agar diffusion, Escherichia coli NIHJ as assay organism); format: in vivo; conditions: mouse, im, I.M., 20 mg./kg.; for half-life: read-out: Blood level, Half-life; for Cmax: read-out: Blood level, Peak Concentration
Description: Antibiotic blood levels were determined in mice following intramuscular administration of the test compounds at 20 mg./kg. The blood samples were collected from the orbital sinuses into heparinized capillary tubes at 15, 30, 60 and 120 minutes after administration. The antibiotic concentration was determined by the paper disc-agar diffusion method using Escherichia coli NIHJ as the assay organism.

Escherichia coli Juhl = test: In vivo efficacy, experimental infection in mice, intramuscular treatment, Escherichia coli Juhl; design: species or system Escherichia coli (infected mice); conditions: im, 120 h, I.M., 100×LD50 challenge i.p., 5 days, read-out: PD50 Escherichia coli Juhl
Description: as §2, §3, §4

Compound | In vitro relative activity, primary evaluation Gp (6) (S. aureus) [%] | In vitro relative activity, primary evaluation Gn-I (13) [1] [%] | In vitro relative activity, primary evaluation Gn-II (6) [2] [%] | In vitro relative activity, primary evaluation Ps (6) (Ps. aeruginosa) [%] | In vitro relative activity, secondary, Pseudomonas aeruginosa (61-64) (Pseudomonas aeruginosa) [%] | ED50 [3] [mg/kg] | half-life [4] [min] | Cmax [4] [ng/mL] | ED50 (Escherichia coli Juhl) [mg/kg]
O=C([O-])C1=C(C[n+]2cccc(C(=O)O)c2)CSC2C(NC(=O)[C@H](NC(=O)c3cnc4cccnc4c3O)c3ccsc3)C(=O)N12 (stereo partly drawn) [BB-S624, 7-[D-α-(4-Hydroxy-1,5-naphthyridine-3-carboxamido)-α-(3-thienyl)acetamido]-3-(3-carboxypyridinium)methyl-3-cephem-4-carboxylate] | 79 | 47 | 10 | 328 | 413 | 20 | 50 | 9500 | –
O=C(O)CSc1ccc[n+](CC2=C(C(=O)[O-])N3C(=O)C(NC(=O)[C@H](NC(=O)c4cnc5cccnc5c4O)c4ccc(O)cc4)C3SC2)c1 (stereo partly drawn) [BB-S636, 7-[D-α-(4-Hydroxy-1,5-naphthyridine-3-carboxamido)-α-(4-hydroxyphenyl)acetamido]-3-(3-carboxymethylthiopyridinium)-methyl-3-cephem-4-carboxylate] | 71 | 242 | 50 | 7070 | – | – | – | – | –
O=C([O-])C1=C(C[n+]2cccc(S(=O)(=O)O)c2)CSC2C(NC(=O)[C@H](NC(=O)c3cnc4cccnc4c3O)c3ccsc3)C(=O)N12 (stereo partly drawn) [BB-S625, 7-[D-α-(4-Hydroxy-1.5-naphthyridine-3-carboxamido)-α-(3-thienyl)acetamido]-3-(3-sulfopyridinium)methyl-3-cephem-4-carboxylate] | 50 | 32 | 7 | 200 | 400 | 36 | 54 | 10000 | –
O=C(O)CSc1cc[n+](CC2=C(C(=O)[O-])N3C(=O)C(NC(=O)[C@H](NC(=O)c4cnc5cccnc5c4O)c4ccc(O)c(Cl)c4)C3SC2)cc1 (stereo partly drawn) [BB-S621, 7-[D-α-(4-Hydroxy-1,5-naphthyridine-3-carboxamido)-α-(3-chloro-4-hydroxyphenyl)acetamido]-3-[4-(carboxymethylthio)-pyridinium]methyl-3-cephem-4-carboxylate] | 20 | 121 | 18 | 800 | 1400 | 4.6 | 54 | 10000 | 2.4
O=C([O-])C1=C(C[n+]2cccc(CCS(=O)(=O)O)c2)CSC2C(NC(=O)[C@H](NC(=O)c3cnc4cccnc4c3O)c3ccc(O)cc3)C(=O)N12 (stereo partly drawn) [BB-S620, 7-[D-α-(4-Hydroxy-1,5-naphthyridine-3-carboxamido)-α-(4-hydroxyphenyl)acetamido]-3-[3-(2-sulfoethyl)pyridinium]methyl 3-cephem-4-carboxylate] | 28 | 60 | 14 | 800 | 1800 | 6.25 | 40 | 12500 | 3.2
O=C(O)CSc1cc[n+](CC2=C(C(=O)[O-])N3C(=O)C(NC(=O)[C@H](NC(=O)c4cnc5cccnc5c4O)c4ccc(O)c(O)c4)C3SC2)cc1 (stereo partly drawn) [BB-S639, 7-[D-α-(4-Hydroxy-1,5-naphthyridine-3-carboxamido)-α-(3,4-dihydroxyphenyl)acetamido]-3-(4-carboxymethylthiopyridinium)-methyl-3-cephem-4-carboxylate] | 20 | 242 | 35 | 4310 | – | – | – | – | –
O=C(O)CSc1ccc[n+](CC2=C(C(=O)[O-])N3C(=O)C(NC(=O)[C@H](NC(=O)c4cnc5cccnc5c4O)c4ccc(O)c(Cl)c4)C3SC2)c1 (stereo partly drawn) [BB-S637, 7-[D-α-(4-Hydroxy-1,5-naphthyridine-3-carboxamido)-α-(3-chloro-4-hydroxyphenyl)acetamido]-3-(3-carboxymethylthiopyridinium)methyl-3-cephem-4-carboxylate] | 71 | 113 | 25 | 3530 | – | – | – | – | –
O=C(O)CCc1ccc[n+](CC2=C(C(=O)[O-])N3C(=O)C(NC(=O)[C@H](NC(=O)c4cnc5cccnc5c4O)c4ccc(O)cc4)C3SC2)c1 (some centres unmarked) [BB-S619] | 31 | 88 | 18 | 725 | 1600 | 4.6 | 55 | 10000 | 3.2
O=C(O)C=Cc1ccc[n+](CC2=C(C(=O)[O-])N3C(=O)C(NC(=O)[C@H](NC(=O)c4cnc5cccnc5c4O)c4ccsc4)C3SC2)c1 (stereo partly drawn) [BB-S626, 7-[D-α-(4-Hydroxy-1,5-naphthyridine-3-carboxamido)-α-(3-thienyl)acetamido]-3-[3-(2-carboxyvinyl)pyridinium]methyl-3-cephem-4-carboxylate] | 45 | 41 | 11 | 231 | 460 | 30 | 42 | 8800 | –
O=C([O-])C1=C(C[n+]2cccc(S(=O)(=O)O)c2)CSC2C(NC(=O)[C@H](NC(=O)c3cnc4cccnc4c3O)c3ccc(O)c(Cl)c3)C(=O)N12 (stereo partly drawn) [BB-S601, 7-[D-α-(4-Hydroxy-1,5-naphthyridine-3-carboxamido)-α-(3-chloro-4-hydroxyphenyl)acetamido]-3-(3-sulfopyridinium)methyl-3-cephem-4-carboxylate] | 79 | 107 | 25 | 3200 | 2490 | 4.4 | 70 | 10000 | –
O=C(O)CSc1ccc[n+](CC2=C(C(=O)[O-])N3C(=O)C(NC(=O)[C@H](NC(=O)c4cnc5cccnc5c4O)c4ccc(O)c(O)c4)C3SC2)c1 (stereo partly drawn) [BB-S638, 7-[D-α-(4-Hydroxy-1,5-naphthyridine-3-carboxamido)-α-(3,4-dihydroxyphenyl)acetamido]-3-(3-carboxymethylthiopyridinium)-methyl-3-cephem-4-carboxylate] | 8 | 69 | 8 | 2380 | – | – | – | – | –
O=C([O-])C1=C(C[n+]2ccc(C(=O)O)c(C(=O)O)c2)CSC2C(NC(=O)[C@H](NC(=O)c3cnc4cccnc4c3O)c3ccc(O)cc3)C(=O)N12 (stereo partly drawn) [BB-S586, 7-[D-α-(4-Hydroxy-1,5-naphthyridine-3-carboxamido)-α-(4-hydroxyphenyl)acetamido]-3-(3,4-dicarboxypyridinium)methyl-3-cephem-4-carboxylate] | 6 | 88 | 11 | 362 | 351 | – | – | – | –
